System: panel of 55 breast cancer cell lines
Test: Cell growth inhibition assay (Cell Titer Glo, 72 h, 9 doses; GI50, TGI, LC50)
Assay type: cell-based, human
Conditions: value is the negative log10 of mol/L
[1] = BT474 cell line, censored GI50 values
[2] = BT483 cell line, censored GI50 values
[3] = CAMA1 cell line, censored GI50 values
[4] = HCC38 cell line, censored GI50 values
[5] = HCC70 cell line, censored GI50 values
[6] = HCC1143 cell line, censored GI50 values
[7] = HCC1187 cell line, censored GI50 values
[8] = HCC1395 cell line, censored GI50 values
[9] = HCC1428 cell line, censored GI50 values
[10] = HCC1500 cell line, censored GI50 values
[11] = HCC1954 cell line, censored GI50 values
[12] = HCC2185 cell line, censored GI50 values
[13] = HCC3153 cell line, censored GI50 values
[14] = MDAMB134VI cell line, censored GI50 values
[15] = MDAMB175VII cell line, censored GI50 values
[16] = MDAMB453 cell line, censored GI50 values
[17] = MDAMB468 cell line, censored GI50 values
[18] = SKBR3 cell line, censored GI50 values
[19] = SUM149PT cell line, censored GI50 values
[20] = SUM1315MO2 cell line, censored GI50 values

## CC(C)Oc1ccc(C(=O)N[C@H](CNC(=O)CN(C)C)Cc2ccc(-c3cn4cccc([C@H](C)O)c4n3)cc2)cc1Cl [GSK923295]
AU565 cell line, censored GI50 values
  GI50: 7.62
[1]
  GI50: 5.42
[2]
  GI50: 6.44
[3]
  GI50: 7.33
[4]
  GI50: 7.32
[5]
  GI50: 7.68
HCC202 cell line, censored GI50 values
  GI50: 7.77
[6]
  GI50: 6.77
[7]
  GI50: 7.52
[8]
  GI50: 7.33
HCC1419 cell line, censored GI50 values
  GI50: 5.72
[9]
  GI50: 5.21
[10]
  GI50: 7.28
HCC1806 cell line, censored GI50 values
  GI50: 7.34
HCC1937 cell line, censored GI50 values
  GI50: 7.20
[11]
  GI50: 7.62
[12]
  GI50: 7.43
[13]
  GI50: 7.22
MCF7 cell line, censored GI50 values
  GI50: 5.90
[14]
  GI50: 5.50
MDAMB157 cell line, censored GI50 values
  GI50: 7.50
[15]
  GI50: 6.76
MDAMB231 cell line, censored GI50 values
  GI50: 7.34
MDAMB361 cell line, censored GI50 values
  GI50: 7.42
MDAMB415 cell line, censored GI50 values
  GI50: 7.28
MDAMB436 cell line, censored GI50 values
  GI50: 7.59
[16]
  GI50: 6.96
[17]
  GI50: 7.61
[18]
  GI50: 7.34
[19]
  GI50: 7.17
SUM159PT cell line, censored GI50 values
  GI50: 7.43
SUM185PE cell line, censored GI50 values
  GI50: 5.42
[20]
  GI50: 7.44
Cell line 600MPE
  GI50: 4.48
Cell line AU565
  GI50: 7.62
Cell line BT474
  GI50: 5.42
Cell line BT483
  GI50: 6.44
Cell line CAMA1
  GI50: 7.33
Cell line HCC38
  GI50: 7.32
Cell line HCC70
  GI50: 7.68
Cell line HCC202
  GI50: 7.77
Cell line HCC1143
  GI50: 6.77
Cell line HCC1187
  GI50: 7.52
Cell line HCC1395
  GI50: 7.33
Cell line HCC1419
  GI50: 5.72
Cell line HCC1428
  GI50: 5.21
Cell line HCC1500
  GI50: 7.28
Cell line HCC1806
  GI50: 7.34
Cell line HCC1937
  GI50: 7.20
Cell line HCC1954
  GI50: 7.62
Cell line HCC2185
  GI50: 7.43
Cell line HCC3153
  GI50: 7.22
Cell line MCF7
  GI50: 5.90
Cell line MDAMB134V
  GI50: 5.50
Cell line MDAMB157
  GI50: 7.50
Cell line MDAMB175V
  GI50: 6.76
Cell line MDAMB231
  GI50: 7.34
Cell line MDAMB361
  GI50: 7.42
Cell line MDAMB415
  GI50: 7.28
Cell line MDAMB436
  GI50: 7.59
Cell line MDAMB453
  GI50: 6.96
Cell line MDAMB468
  GI50: 7.61
Cell line SKBR3
  GI50: 7.34
Cell line SUM52PE
  GI50: 7.64
Cell line SUM149PT
  GI50: 7.17
Cell line SUM159PT
  GI50: 7.43
Cell line SUM185PE
  GI50: 5.42
Cell line SUM1315MO
  GI50: 7.44
Cell line UACC812
  GI50: 7.92
Cell line UACC893
  GI50: 7.91
Cell line ZR75B
  GI50: 7.15
Cell line ZR751
  GI50: 6.92
Cell line ZR7530
  GI50: 7.68

## N#Cc1c(NC(=O)c2cccc3ccccc23)sc2c1CCCC2 [TCS JNK 5a]
BT20 cell line, censored GI50 values
  GI50: 5.97
[1]
  GI50: 4.17
[2]
  GI50: 5.94
[3]
  GI50: 5.48
[4]
  GI50: 5.32
[5]
  GI50: 5.64
[6]
  GI50: 4.21
[7]
  GI50: 6.08
[8]
  GI50: 6.21
[9]
  GI50: 4.61
[10]
  GI50: 5.31
[11]
  GI50: 5.90
[12]
  GI50: 4.66
[13]
  GI50: 5.59
[14]
  GI50: 4.78
[15]
  GI50: 5.02
[16]
  GI50: 6.12
[17]
  GI50: 4.37
[18]
  GI50: 5.27
SUM52PE cell line, censored GI50 values
  GI50: 4.86
[19]
  GI50: 5.46
[20]
  GI50: 6.31
UACC812 cell line, censored GI50 values
  GI50: 5.72
ZR75B cell line, censored GI50 values
  GI50: 4.59
Cell line BT20
  GI50: 5.97
Cell line BT474
  GI50: 4.17
Cell line BT483
  GI50: 5.94
Cell line CAMA1
  GI50: 5.48
Cell line HCC38
  GI50: 5.32
Cell line HCC70
  GI50: 5.64
Cell line HCC1143
  GI50: 4.21
Cell line HCC1187
  GI50: 6.08
Cell line HCC1395
  GI50: 6.21
Cell line HCC1428
  GI50: 4.61
Cell line HCC1500
  GI50: 5.31
Cell line HCC1806
  GI50: 3.92
Cell line HCC1937
  GI50: 3.88
Cell line HCC1954
  GI50: 5.90
Cell line HCC2185
  GI50: 4.66
Cell line HCC3153
  GI50: 5.59

Source: patent US10770169B2, “Method of providing a treatment to a subject based on a dynamic pathway map” (THE REGENTS OF THE UNIVERSITY OF CALIFORNIA, priority 2010, dated 2020)
